# Results as given in ChEMBL document CHEMBL5505960, “Synthesis and evaluation of butylphthalide-scutellarein hybrids as multifunctional agents for the treatment of Alzheimer's disease” (Eur J Med Chem, 2024).
# Active and inactive are the calls of the source. The rule behind the calls is not given here.
# Tests used:
# [1] = target: Amyloid-beta precursor protein (Homo sapiens) (UniProt P05067); assay: Inhibition of amyloid beta (1 to 42) (unknown origin) self induced aggregation at 25 uM by ThT fluorescence assay relative to control
# [2] = Antioxidant activity assessed as trolox equivalent of ORAC radical scavenging activity by ORAC-FL assay relative to trolox; type: functional
# [3] = target: Amyloid-beta precursor protein (Homo sapiens) (UniProt P05067); assay: Inhibition of Cu2+ induced amyloid beta (1 to 42)(unknown origin) fibrillation at 25 uM by ThT fluorescence assay relative to control
# [4] = target: Amyloid-beta precursor protein (Homo sapiens) (UniProt P05067); assay: Disaggregation of self-induced amyloid beta (1 to 42) (unknown origin) fibrils at 25 uM by ThT fluorescence assay relative to control
# [5] = test system: BV-2; assay: Antineuroinflammatory activity in LPS-induced mouse BV-2 cells assessed as inhibition of NO release at 0.5 uM preincubated for 30 mins followed by LPS stimulation and measured after 24 hrs relative to control; type: functional; design: scale not given: the % may be the effect or the level left; details: time 24.5 hrs
# [6] = test system: HT-22; assay: Neuroprotective activity against amyloid beta (1 to 42)-induced injury in mouse HT-22 cells assessed as reversal of reduced cell synapse length at 10 uM measured after 24 hrs […]; type: functional, cell-based
# [7] = test system: BV-2; assay: Antineuroinflammatory activity in LPS-induced mouse BV-2 cells assessed as inhibition of IL-1 beta release at 0.5 uM preincubated for 30 mins followed by LPS stimulation and measured after 24 hrs relative to control; type: functional; design: scale not given: the % may be the effect or the level left; details: time 24.5 hrs
# [8] = test system: BV-2; assay: Antineuroinflammatory activity in LPS-induced mouse BV-2 cells assessed as inhibition of NO release at 10 uM preincubated for 30 mins followed by LPS stimulation and measured after 24 hrs relative to control; type: functional; design: scale not given: the % may be the effect or the level left; details: time 24.5 hrs
# [9] = test system: BV-2; assay: Antineuroinflammatory activity in LPS-induced mouse BV-2 cells assessed as inhibition of TNF-alpha release at 10 uM preincubated for 30 mins followed by LPS stimulation and measured after 24 hrs relative to control; type: functional; design: scale not given: the % may be the effect or the level left; details: time 24.5 hrs
# [10] = test system: BV-2; assay: Antineuroinflammatory activity in LPS-induced mouse BV-2 cells assessed as inhibition of NO release at 2.5 uM preincubated for 30 mins followed by LPS stimulation and measured after 24 hrs relative to control; type: functional; design: scale not given: the % may be the effect or the level left; details: time 24.5 hrs
# [11] = test system: BV-2; assay: Antineuroinflammatory activity in LPS-induced mouse BV-2 cells assessed as inhibition of IL-1 beta release at 10 uM preincubated for 30 mins followed by LPS stimulation and measured after 24 hrs relative to control; type: functional; design: scale not given: the % may be the effect or the level left; details: time 24.5 hrs
# [12] = test system: BV-2; assay: Antineuroinflammatory activity in LPS-induced mouse BV-2 cells assessed as inhibition of TNF-alpha release at 2.5 uM preincubated for 30 mins followed by LPS stimulation and measured after 24 hrs relative to control; type: functional; design: scale not given: the % may be the effect or the level left; details: time 24.5 hrs
# [13] = test system: HT-22; assay: Neuroprotective activity against amyloid beta (1 to 42)-induced injury in mouse HT-22 cells assessed as reversal of reduction in cell numbers at 10 uM measured after 24 hrs by MTT assay; type: functional, cell-based
# [14] = test system: BV-2; assay: Antineuroinflammatory activity in LPS-induced mouse BV-2 cells assessed as inhibition of TNF-alpha release at 0.5 uM preincubated for 30 mins followed by LPS stimulation and measured after 24 hrs relative to control; type: functional; design: scale not given: the % may be the effect or the level left; details: time 24.5 hrs
# [15] = test system: BV-2; assay: Cytotoxicity against mouse BV-2 cells at upto 10 uM measured after 24 hrs by MTT assay; type: toxicity, cell-based; details: bv-2, 24 h
# [16] = test system: BV-2; assay: Cytotoxicity against LPS-induced mouse BV-2 cells assessed as cell viability at 0.5 to 10 uM incubated for 24 hrs by MTT assay; type: toxicity, cell-based; details: bv-2, 24 h, dose 0.5-10 µM
# [17] = test system: HT-22; assay: Neuroprotective activity against amyloid beta (1 to 42) induced cell injury in mouse HT-22 cells assessed as cell viability at 50 uM incubated for 24 hrs by MTT assay; type: functional, cell-based
# [18] = test system: BV-2; assay: Antineuroinflammatory activity in LPS-induced mouse BV-2 cells assessed as inhibition of IL-1 beta release at 2.5 uM preincubated for 30 mins followed by LPS stimulation and measured after 24 hrs relative to control; type: functional; design: scale not given: the % may be the effect or the level left; details: time 24.5 hrs
# Chain of Amyloid-beta precursor protein (Homo sapiens) (P05067 whole entry): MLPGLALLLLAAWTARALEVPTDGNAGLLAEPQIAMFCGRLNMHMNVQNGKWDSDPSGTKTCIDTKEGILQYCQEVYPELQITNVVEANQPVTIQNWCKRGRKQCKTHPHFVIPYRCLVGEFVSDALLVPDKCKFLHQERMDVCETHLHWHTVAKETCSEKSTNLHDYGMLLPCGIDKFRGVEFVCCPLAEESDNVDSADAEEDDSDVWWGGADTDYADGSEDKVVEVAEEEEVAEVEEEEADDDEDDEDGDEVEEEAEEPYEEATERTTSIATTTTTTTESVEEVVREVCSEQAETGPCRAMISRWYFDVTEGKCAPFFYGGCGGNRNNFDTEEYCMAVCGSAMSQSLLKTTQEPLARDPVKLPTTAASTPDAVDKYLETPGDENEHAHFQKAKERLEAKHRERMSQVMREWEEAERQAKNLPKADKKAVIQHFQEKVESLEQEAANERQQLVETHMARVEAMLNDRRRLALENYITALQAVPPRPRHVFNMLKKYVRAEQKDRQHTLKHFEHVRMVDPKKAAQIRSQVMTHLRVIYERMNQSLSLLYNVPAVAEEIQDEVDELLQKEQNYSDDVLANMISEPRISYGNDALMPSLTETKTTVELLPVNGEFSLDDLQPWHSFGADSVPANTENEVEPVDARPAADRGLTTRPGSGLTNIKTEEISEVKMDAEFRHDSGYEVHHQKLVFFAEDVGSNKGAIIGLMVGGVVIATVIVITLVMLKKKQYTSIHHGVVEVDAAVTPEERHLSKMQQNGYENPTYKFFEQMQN
Structure (SMILES),inhibition [1] [%],Activity [2],further results
C=CCC1OC(=O)c2c1cc(OC)c(OC)c2O (stereo not drawn),< 5,1.71,–
CCCC1OC(=O)c2c1cc(OC)c(OC)c2OC (stereo not drawn),21.8,0.39,–
C=CC(C)(C)C1OC(=O)c2c1cc(OC)c(OC)c2OC (stereo not drawn),15,0.45,–
C=CCCC1OC(=O)c2c1cc(OC)c(OC)c2OC (stereo not drawn),24.3,0.53,–
CCCCCCC1OC(=O)c2c1cc(OC)c(O)c2O (stereo not drawn),83.3,2.5,inhibition [3]: 30.5%; Activity [4]: 32.3%
C=CCCCCCC1OC(=O)c2c1cc(OC)c(OC)c2OC (stereo not drawn),19.2,0.46,–
CCCCC1OC(=O)c2ccccc21 (racemic) [RAC-3-N-BUTYLPHTHALIDE],–,0.23,Activity [5]: 13.3%; Activity [6]: inactive; Activity [7]: 11.5%; Activity [8]: 45.5%; Activity [9]: 40.6%; Activity [10]: 23.2%; Activity [11]: 31.3%; Activity [12]: 24%; Activity [13]: inactive; Activity [14]: 12.6%; Activity [15]: Non-Toxic; Activity [16]: Non-Toxic; Activity [17]: Active; Activity [18]: 21.1%
C=CCCCC1OC(=O)c2c1cc(OC)c(OC)c2OC (stereo not drawn),19.2,0.71,–
C=CC(C)(C)C1OC(=O)c2c1cc(OC)c(OC)c2O (stereo not drawn),37.1,1.94,–
CCCCCCCC1OC(=O)c2c1cc(OC)c(OC)c2OC (stereo not drawn),16.5,0.62,–
CCCCCCC1OC(=O)c2c1cc(OC)c(OC)c2OC (stereo not drawn),25.2,0.68,–
C=CCC1OC(=O)c2c1cc(OC)c(OC)c2OC (stereo not drawn),25.4,0.41,–
C=CCCCCC1OC(=O)c2c1cc(OC)c(OC)c2OC (stereo not drawn),17.6,0.61,–
CCCCCC1OC(=O)c2c1cc(OC)c(OC)c2OC (stereo not drawn),19.4,0.47,–

# Further lines, with some results ahead:
inhibition [1] [%],Structure (SMILES),Activity [2],further results
30.2,CCCCC1OC(=O)c2c1cc(OC)c(OC)c2O (stereo not drawn),1.27,–
24.6,C=CCCCC1OC(=O)c2c1cc(OC)c(OC)c2O (stereo not drawn),1.68,–
23.4,CCCCC1OC(=O)c2c1cc(OC)c(O)c2OC (stereo not drawn),1.59,–
35.1,CCCCCC1OC(=O)c2c1cc(OC)c(OC)c2O (stereo not drawn),1.36,–
78.8,CCCCC1OC(=O)c2c1cc(OC)c(O)c2O (stereo not drawn),2.36,inhibition [3]: 28.5%; Activity [4]: 39.5%
27.3,CCCC1OC(=O)c2c1cc(OC)c(OC)c2O (stereo not drawn),1.21,–
15.9,CCCCC1OC(=O)c2c1cc(OC)c(OC)c2OC (stereo not drawn),0.4,–
25.2,CCCCCCC1OC(=O)c2c1cc(OC)c(OC)c2O (stereo not drawn),1.44,–
19.4,CCCCCC1OC(=O)c2c1cc(OC)c(O)c2OC (stereo not drawn),2.08,–
29.1,CCCCCCC1OC(=O)c2c1cc(OC)c(O)c2OC (stereo not drawn),1.6,–
26.4,CCCCCCCC1OC(=O)c2c1cc(OC)c(OC)c2O (stereo not drawn),1.34,–
19.2,C=CCCCCC1OC(=O)c2c1cc(OC)c(OC)c2O (stereo not drawn),1.77,–
< 5,C=CCCC1OC(=O)c2c1cc(OC)c(OC)c2O (stereo not drawn),1.93,–
< 5,C=CCCCCCC1OC(=O)c2c1cc(OC)c(OC)c2O (stereo not drawn),1.81,–
